# ChEMBL document CHEMBL1201862, “PubChem BioAssay data set” (2004)
# “And” between values parts separate entries of the source, which are not always exact repeats. Equal entries are not always repeated. The source made the active and inactive calls.
# Experiments:
# [1] = target: T1, Heat shock factor protein 1 (Mus musculus, UniProt P38532); experiment: decrease of HSF1-responsive luciferase luminescence – cell-based, NIH3T3, dose retest, confirmation (AID 2382); assay type: functional;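 further: NIH3T3 fibroblasts with HSF1-driven luciferase reporter stressed by proteasome inhibitor MG132; luminescence from HSF1-driven luciferase expression after 8 hours of MG132 stress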
# T1 sequence (P38532 whole entry): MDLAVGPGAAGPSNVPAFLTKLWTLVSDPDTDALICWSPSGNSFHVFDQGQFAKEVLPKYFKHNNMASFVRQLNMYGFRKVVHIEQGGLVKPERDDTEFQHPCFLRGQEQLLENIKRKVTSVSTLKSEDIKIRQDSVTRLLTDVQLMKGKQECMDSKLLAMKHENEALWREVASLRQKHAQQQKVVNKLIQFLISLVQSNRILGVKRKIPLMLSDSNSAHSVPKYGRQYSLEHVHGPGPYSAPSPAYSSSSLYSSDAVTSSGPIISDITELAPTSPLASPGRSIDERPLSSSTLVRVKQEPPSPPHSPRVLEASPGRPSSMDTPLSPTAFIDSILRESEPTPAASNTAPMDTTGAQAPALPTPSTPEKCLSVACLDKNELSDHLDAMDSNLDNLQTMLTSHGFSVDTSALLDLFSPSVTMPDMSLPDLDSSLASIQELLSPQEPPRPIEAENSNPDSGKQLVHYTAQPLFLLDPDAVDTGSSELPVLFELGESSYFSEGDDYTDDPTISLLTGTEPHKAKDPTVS
# [2] = target: T2, Polyadenylate-binding protein 1 (Homo sapiens, UniProt P11940); experiment: MLLE binding blockers, Cy5 peptide tracer – biochemical, fluorescence polarization, Cy5-PAM2 peptide, secondary, miRNA deadenylation inhibitor project, dose response (AID 602260); assay type: functional; conditions: read-out: IC50_Mean
# [3] = target: T2, Polyadenylate-binding protein 1; experiment: MLLE domain peptide-binding blockers, IC50 – biochemical, fluorescence polarization, FITC-PAM2 peptide, dose response (AID 602259); assay type: functional; conditions: read-out: IC50_Mean
# Cytochrome P450 2C19 = Cytochrome P450 2C19 (Homo sapiens, UniProt P33261); experiment: Cytochrome panel assay with activity outcomes. Panel member name: p450-cyp2c19 Compounds with AC50 equal or less than 10 uM are considered active; assay type: functional; conditions: read-out: AC50
# Cytochrome P450 2D6 = Cytochrome P450 2D6 (Homo sapiens, UniProt P10635);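 further: CYP2D6 member of a cytochrome P450 panel assay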
# Cytochrome P450 3A4 = Cytochrome P450 3A4 (Homo sapiens, UniProt P08684);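 further: CYP3A4 tested as one member of a cytochrome P450 panel screen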
# Cytochrome P450 2C9 = Cytochrome P450 2C9 (Homo sapiens, UniProt P11712)
# [4] = Trypanosoma cruzi growth suppression in host cells – NIH3T3 host cells, beta-gal luminescence, confirmation (AID 2044); assay type: functional, cell-based;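 further: intracellular parasites grown in NIH/3T3 mouse fibroblasts as host cells; luminescent beta-galactosidase reporter signal from transgenic T. cruzi replicating inside host cells; inhibitors lower the luminescence signal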
# [5] = NIH3T3 cell viability loss – ATP luminescence, mouse fibroblasts, counter-screen, dose response (AID 2010); assay type: functional, cell-based;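 further: cells exposed to compound for about 90 hours before reading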
# INS1 = experiment: INS-1E survival protection against cytokine death – cell-based, luminescence, retest, dose response (AID 449756); assay type: functional; conditions: Rattus norvegicus;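 further: cell death triggered by IL-1 beta plus TNF-alpha plus IFN-gamma mixture; protective hits raise ATP signal compared with cytokine alone wells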
# [6] = NIH-3T3 fibroblast cytotoxicity, dose response, cytotoxicity control, cell-based, fluorescence, Alamar Blue, secondary assay (AID 2327); assay type: functional;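 further: NIH-3T3 mouse fibroblasts cultured with fluconazole at 8 µg/mL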
# [7] = fluconazole-exposed Candida albicans growth modulators – fluorescence, retest, confirmation (AID 2467); assay type: functional, cell-based
# [8] = tested on: Streptococcus sp. 'group A'; experiment: Streptococcus pyogenes SK(-)GAS viability under kanamycin – luminescence, BacTiterGlo, confirmation, counter-screen for streptokinase expression inhibitor project, dose response (AID 1900); assay type: functional, organism-based
# Streptokinase A = target: T3, Streptokinase A (Streptococcus pyogenes serotype M1, UniProt P10520); experiment: viability-normalized secreted streptokinase activity reduction – plasminogen activation absorbance, OD405, dose response (AID 1914); assay type: functional, Streptococcus pyogenes M1 GAS;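 further: secreted streptokinase activity via plasminogen activation per viability signal from cell pellet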
# T3 sequence (P10520 whole entry): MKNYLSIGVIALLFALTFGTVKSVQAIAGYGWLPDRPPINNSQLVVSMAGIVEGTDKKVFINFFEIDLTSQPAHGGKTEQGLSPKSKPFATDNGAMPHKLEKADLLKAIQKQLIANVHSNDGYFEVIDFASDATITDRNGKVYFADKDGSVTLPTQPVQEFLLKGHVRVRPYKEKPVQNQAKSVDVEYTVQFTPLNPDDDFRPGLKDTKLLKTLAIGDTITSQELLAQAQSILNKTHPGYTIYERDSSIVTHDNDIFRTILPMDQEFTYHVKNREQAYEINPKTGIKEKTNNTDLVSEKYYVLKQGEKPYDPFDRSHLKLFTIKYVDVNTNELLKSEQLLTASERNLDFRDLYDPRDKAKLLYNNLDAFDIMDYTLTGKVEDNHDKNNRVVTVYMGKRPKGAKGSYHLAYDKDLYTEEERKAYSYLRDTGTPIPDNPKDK
# Streptococcus = experiment: GAS UMAA2166 growth inhibition – luminescence, BacTiterGlo, counter-screen for streptokinase expression inhibitor project, dose response (AID 1915); assay type: functional, organism-based;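 further: potency for reduction of bacterial viability or growth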
# [9] = luciferase reporter signal suppression in cells – H4 neuroglioma cells, luminescence, dose response (AID 1990); assay type: functional, cell-based
# [10] = Luminescence Cell-Based Dose Response HTS to Identify Inhibitors of 5'UTR Stem-Loop Driven Prion Protein mRNA Translation in H4 Neuroglioblastoma Cells. [Related pubchem assays: 1827 (Project Summary), 1813 (Primary HTS)]; assay type: functional
# [11] = alpha-synuclein stem-loop luciferase translation blockers – H4 neuroglioma cells, luminescence, confirmation (AID 1988); assay type: functional, cell-based
# Cytochrome P450 1A2 = target: T4, Cytochrome P450 1A2 (Homo sapiens, UniProt P05177);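 further: PubChem cytochrome P450 panel assay, CYP1A2 panel member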
# T4 sequence (P05177 whole entry): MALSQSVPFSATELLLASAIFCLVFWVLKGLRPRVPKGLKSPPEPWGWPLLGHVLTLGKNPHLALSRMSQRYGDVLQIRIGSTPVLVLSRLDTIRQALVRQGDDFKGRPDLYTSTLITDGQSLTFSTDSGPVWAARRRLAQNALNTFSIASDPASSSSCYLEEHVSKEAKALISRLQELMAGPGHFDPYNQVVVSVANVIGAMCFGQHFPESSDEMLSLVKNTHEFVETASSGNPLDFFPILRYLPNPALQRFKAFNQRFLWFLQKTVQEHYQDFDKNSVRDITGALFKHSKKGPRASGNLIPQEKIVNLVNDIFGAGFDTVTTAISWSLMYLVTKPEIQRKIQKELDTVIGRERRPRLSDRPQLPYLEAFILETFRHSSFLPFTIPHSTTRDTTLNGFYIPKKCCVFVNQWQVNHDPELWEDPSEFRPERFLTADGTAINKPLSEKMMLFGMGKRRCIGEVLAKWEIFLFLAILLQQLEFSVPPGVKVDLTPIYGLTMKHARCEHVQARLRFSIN
# [12] = P. falciparum Dd2 growth inhibitors, dose response, SYBR Green, cherry-picked samples (AID 1159567); assay type: functional, cell-based
# [13] = Luminescence Cell-Based Dose Response HTS to Identify Activators of Luciferase Translation or Activity in H4 […] Cells. [Related pubchem assays: 1829 (Project Summary), 1814 (Primary HTS)]; assay type: functional
# H4 = experiment: Luminescence Cell-Based Dose Response HTS to Identify Activators of 5'UTR Stem-Loop Driven Prion Protein mRNA Translation in H4 Neuroglioblastoma Cells. [Related pubchem assays: 1829 (Project Summary), 1814 (Primary HTS)]; assay type: functional; conditions: Homo sapiens
# H9c2 = experiment: cells; assay type: functional, cell-based; conditions: Rattus norvegicus, H9c2, Myocardium;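 further: confirmatory concentration-response retest of ultra-high-throughput screening hits for modulation of myocardial damage; cell death induced by hydrogen peroxide oxidative stress; compound pretreatment for 60 min then peroxide exposure for 2 h; potency is for protecting the cells against peroxide damage rather than for killing them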
# Chain of Cytochrome P450 2D6 (P10635 whole entry): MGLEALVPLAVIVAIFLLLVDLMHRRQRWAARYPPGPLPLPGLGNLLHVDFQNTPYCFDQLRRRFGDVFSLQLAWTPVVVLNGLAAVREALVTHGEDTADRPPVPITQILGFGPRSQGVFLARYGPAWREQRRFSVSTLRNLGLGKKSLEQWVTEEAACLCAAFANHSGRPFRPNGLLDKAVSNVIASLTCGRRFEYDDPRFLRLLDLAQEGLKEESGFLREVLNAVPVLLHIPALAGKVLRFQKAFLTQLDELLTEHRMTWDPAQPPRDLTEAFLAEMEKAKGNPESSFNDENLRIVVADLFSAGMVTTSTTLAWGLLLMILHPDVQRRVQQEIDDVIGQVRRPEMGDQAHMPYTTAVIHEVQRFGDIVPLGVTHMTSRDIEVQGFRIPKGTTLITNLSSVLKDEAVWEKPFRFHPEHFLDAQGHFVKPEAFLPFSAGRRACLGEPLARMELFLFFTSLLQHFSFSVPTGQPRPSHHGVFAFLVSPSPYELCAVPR
# Chain of Cytochrome P450 2C9 (P11712 whole entry): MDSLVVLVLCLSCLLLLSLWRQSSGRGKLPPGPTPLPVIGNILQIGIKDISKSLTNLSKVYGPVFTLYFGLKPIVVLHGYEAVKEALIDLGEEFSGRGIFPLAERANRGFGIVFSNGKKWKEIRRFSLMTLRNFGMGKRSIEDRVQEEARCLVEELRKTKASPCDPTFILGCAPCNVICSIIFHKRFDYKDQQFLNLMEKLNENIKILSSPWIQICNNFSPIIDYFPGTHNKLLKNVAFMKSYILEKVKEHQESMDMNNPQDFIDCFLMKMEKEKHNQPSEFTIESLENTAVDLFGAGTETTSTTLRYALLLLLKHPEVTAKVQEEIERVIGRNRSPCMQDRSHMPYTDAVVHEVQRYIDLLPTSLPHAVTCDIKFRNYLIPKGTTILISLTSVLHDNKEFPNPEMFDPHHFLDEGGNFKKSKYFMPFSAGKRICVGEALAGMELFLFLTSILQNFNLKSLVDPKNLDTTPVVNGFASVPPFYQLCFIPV
# T2 sequence (P11940 whole entry, the tested form may be a part): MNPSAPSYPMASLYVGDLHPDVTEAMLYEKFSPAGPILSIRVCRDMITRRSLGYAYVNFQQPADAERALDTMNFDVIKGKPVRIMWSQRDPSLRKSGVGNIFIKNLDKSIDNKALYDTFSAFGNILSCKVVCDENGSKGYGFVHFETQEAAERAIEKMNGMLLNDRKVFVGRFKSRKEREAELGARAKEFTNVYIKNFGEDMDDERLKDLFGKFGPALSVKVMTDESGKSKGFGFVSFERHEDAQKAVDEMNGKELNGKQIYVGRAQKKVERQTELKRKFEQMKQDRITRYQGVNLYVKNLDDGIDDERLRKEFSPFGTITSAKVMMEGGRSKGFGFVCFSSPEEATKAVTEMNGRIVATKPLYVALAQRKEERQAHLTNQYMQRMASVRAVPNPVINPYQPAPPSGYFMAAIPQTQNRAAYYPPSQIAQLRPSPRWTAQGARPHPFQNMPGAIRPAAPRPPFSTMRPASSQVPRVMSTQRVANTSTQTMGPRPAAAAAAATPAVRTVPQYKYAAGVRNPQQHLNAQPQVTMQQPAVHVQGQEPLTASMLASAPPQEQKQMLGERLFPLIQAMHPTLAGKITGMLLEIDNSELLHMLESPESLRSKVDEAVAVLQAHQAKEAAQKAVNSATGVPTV
# Chain of Cytochrome P450 2C19 (P33261 whole entry): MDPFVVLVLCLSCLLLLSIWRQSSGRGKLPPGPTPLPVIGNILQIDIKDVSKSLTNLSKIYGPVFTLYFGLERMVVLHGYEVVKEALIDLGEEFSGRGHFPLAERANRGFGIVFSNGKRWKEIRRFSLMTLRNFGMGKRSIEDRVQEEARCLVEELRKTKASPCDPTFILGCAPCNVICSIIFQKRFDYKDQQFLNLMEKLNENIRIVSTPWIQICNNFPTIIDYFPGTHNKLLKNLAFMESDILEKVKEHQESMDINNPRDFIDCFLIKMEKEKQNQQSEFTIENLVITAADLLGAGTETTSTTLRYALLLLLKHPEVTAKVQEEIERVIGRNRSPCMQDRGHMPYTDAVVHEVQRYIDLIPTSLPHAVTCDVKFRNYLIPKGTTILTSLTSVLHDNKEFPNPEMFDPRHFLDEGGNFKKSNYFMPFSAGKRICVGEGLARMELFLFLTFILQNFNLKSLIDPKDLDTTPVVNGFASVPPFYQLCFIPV
# Chain of Cytochrome P450 3A4 (P08684 whole entry): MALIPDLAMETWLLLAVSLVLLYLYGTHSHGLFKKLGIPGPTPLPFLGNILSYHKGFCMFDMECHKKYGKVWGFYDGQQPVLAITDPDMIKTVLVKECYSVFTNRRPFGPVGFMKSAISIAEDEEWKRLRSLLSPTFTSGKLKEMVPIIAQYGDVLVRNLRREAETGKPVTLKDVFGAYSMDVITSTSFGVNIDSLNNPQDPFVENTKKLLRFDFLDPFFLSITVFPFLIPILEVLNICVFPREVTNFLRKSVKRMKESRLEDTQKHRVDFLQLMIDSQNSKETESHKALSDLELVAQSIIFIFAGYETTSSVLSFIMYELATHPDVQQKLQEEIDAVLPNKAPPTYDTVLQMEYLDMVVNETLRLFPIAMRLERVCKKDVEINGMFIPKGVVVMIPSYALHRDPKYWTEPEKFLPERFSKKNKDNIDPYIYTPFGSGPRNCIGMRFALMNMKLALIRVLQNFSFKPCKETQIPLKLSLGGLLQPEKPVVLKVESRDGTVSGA
smiles,measurement,setting,value
O=C(CNC(=O)C1CCCCC1)NC1=NCCS1,EC50,[1],> 195 µM (not active)
same,IC50,[2],> 66 µM (inactive)
same,IC50,[3],> 66 µM (inactive)
C(=N\N(c1ccccc1)c1ccccc1)/c1ccc2c(c1)OCO2,AC50,Cytochrome P450 2C19,2.51 µM (inconclusive)
same,AC50,Cytochrome P450 2D6,10 µM (inconclusive)
same,AC50,Cytochrome P450 3A4,15.8 µM (inconclusive)
same,AC50,Cytochrome P450 2C9,8.91 µM (inconclusive)
N#Cc1c(N2CCCCC2)nc(N2CCCCC2)c2c1CCN(Cc1ccccc1)C2,EC50,[4],0.505 µM (active)
same,EC50,[5],> 30 µM (not active)
same,AC50,INS1,12.7 µM (active)
OCCN1CCN(CC/C=C2\c3ccccc3Sc3ccc(C(F)(F)F)cc32)CC1 [E-FLUPENTIXOL],AC50,Cytochrome P450 2D6,6.31 µM (inconclusive) and 31.6 µM (inconclusive)
Cc1ccsc1C(=O)OCC(=O)Nc1sccc1C(N)=O,EC50,[6],> 150 µM (inactive)
same,EC50,[7],5.44 µM (active)
O=C(CSc1nnc(-c2cccnc2)o1)Nc1ccccc1F,IC50,[2],> 66 µM (inactive)
same,IC50,[3],> 66 µM (inactive)
CC(=O)Nc1cccc(NC(=O)Nc2cccc(F)c2)c1,EC50,[6],> 150 µM (inactive)
same,EC50,[7],3.22 µM (active)
CCN(CC)c1ccc(/C=N/NC(=S)NCc2ccccc2)c(O)c1,EC50,[8],49.2 µM (active)
same,EC50,Streptokinase A,> 150 µM (not active)
same,EC50,Streptococcus,> 150 µM (not active)
same,AC50,INS1,0.712 µM (active)
Oc1c(Cl)c(Cl)c(Cl)c(Cl)c1Cl [PENTACHLOROPHENOL],EC50,[6],75.3 µM (inconclusive)
same,EC50,[7],0.657 µM (active)
Cc1ccc(NC(=O)C2(NC(=O)c3cccc(N4C(=O)CSC4c4ccccc4)c3)CCCCC2)cc1 (configuration not stated),EC50,[9],> 120 µM (not active)
same,EC50,[10],> 120 µM (not active)
same,EC50,[11],> 120 µM (not active)
same,AC50,Cytochrome P450 2D6,1.12 µM (inconclusive)
COC(=O)C1=C(C)OC(N)=C(C#N)C1C1CCCCC1 (configuration not stated),AC50,Cytochrome P450 2D6,31.6 µM (inconclusive)
same,AC50,Cytochrome P450 1A2,15.8 µM (inconclusive)
O=C(N/N=C/c1cnc(N2CCCCC2)s1)c1ccc(C(F)(F)F)cc1,EC50,[9],12 µM (active)
same,EC50,[10],> 120 µM (not active)
same,EC50,[11],9.6 µM (active)
same,AC50,INS1,4.54 µM (active)
COc1c2c(c3c(c1OC)c(=O)c1ccccc1n3C)OCO2,IC50,[2],> 66 µM (inactive)
same,IC50,[3],41.7 µM (inactive)
S=C(Nc1ccc(Br)cc1Cl)Nn1cnnc1,IC50,[2],> 66 µM (inactive)
same,IC50,[3],> 66 µM (inactive)
CCCCC#Cc1nc(NC)c2ncn([C@@H]3O[C@@H](CO)[C@H](O)[C@H]3O)c2n1,AC50,Cytochrome P450 2C19,3.16 µM (inconclusive)
same,AC50,Cytochrome P450 2D6,31.6 µM (inconclusive)
same,AC50,Cytochrome P450 1A2,31.6 µM (inconclusive)
COc1cc(C2c3sc(O)nc3SC3C(=O)N(c4ccc(Br)cc4)C(=O)C32)ccc1O (configuration not stated),IC50,[2],> 66 µM (inactive)
same,IC50,[3],> 66 µM (inactive)
CC(=O)c1c(C)cc(C)c(CSc2nc(C)cc(=O)[nH]2)c1C,IC50,[2],> 66 µM (inactive)
same,IC50,[3],> 66 µM (inactive)
Cc1nc(NCCc2ccc(S(N)(=O)=O)cc2)c2c(C)c(C)sc2n1,AC50,INS1,5.52 µM (active)
Cc1ccc(NC(=O)c2cc(S(=O)(=O)NCCC3=CCCCC3)ccc2F)cc1,AC50,INS1,2.96 µM (active)
COc1ccc(CONS(=O)(=O)c2ccc(NC(C)=O)cc2)cc1Cl,AC50,Cytochrome P450 2D6,3.55 µM (inconclusive)
O=C(NCc1cccnc1)C(=O)Nc1nc(C23CC4CC(CC(C4)C2)C3)cs1,AC50,INS1,35.3 µM (active)
C[C@H](CO)N1C[C@H](C)[C@H](CN(C)C(=O)NC2CCCCC2)OCc2ccccc2-c2c(n(C)c3ccccc23)C1=O,AC50,[12],5.57 µM (active)
CCOC(=O)c1s/c(=N\C(=O)c2ccco2)n(C)c1C,EC50,[6],> 150 µM (inactive)
same,EC50,[7],9.57 µM (active)
COc1ccc(-c2cc(C(=O)N3CCN(c4ccccn4)CC3)c3ccccc3n2)cc1,EC50,[13],> 120 µM (not active)
same,EC50,H4,7.36 µM (active)
COc1cc(C(=S)N2CCOCC2)cc(OC)c1OS(=O)(=O)c1ccc(C)cc1,IC50,[2],> 66 µM (inactive)
same,IC50,[3],> 66 µM (inactive)
O=C(/C=C\c1ccc(O)c(O)c1)OCCc1ccccc1,AC50,Cytochrome P450 2D6,39.8 µM (inconclusive)
same,AC50,Cytochrome P450 2C9,39.8 µM (inconclusive)
Cc1nnsc1-c1onc(C)c1C(=O)Nc1cc(Cl)cc(Cl)c1,AC50,INS1,12.8 µM (active)
NNC(=O)c1cc(-c2cccs2)nc2ccccc12,EC50,[6],> 150 µM (inactive)
same,EC50,[7],> 38 µM (not active)
CCOC(=O)C1=C(O)C(=O)N(Cc2ccccc2)C1,AC50,Cytochrome P450 2D6,31.6 µM (inconclusive)
O=C1/C(=C/c2cccnc2)SC(=S)N1c1ccc(F)cc1,IC50,[2],> 66 µM (inactive)
same,IC50,[3],> 66 µM (inactive)
O=C1c2ccccc2NC(c2ccc(Cl)cc2Cl)N1O (configuration not stated),IC50,H9c2,> 79 µM (inactive)
same,AC50,Cytochrome P450 2D6,14.1 µM (inconclusive)
same,AC50,Cytochrome P450 2C9,25.1 µM (inconclusive)
CCS(=O)(=O)N1CCCCN2[C@H](CO)[C@H](c3ccc(-c4cccc(C#N)c4)cc3)[C@H]2C1,AC50,[12],7.45 µM (active)
